Where two headings read alike, the source gives them in different places.
Key:
human CA-II = human CA-II (Homo sapiens (Human), UniProt P00918); assay: Activity for inhibiting carbonic anhydrase (CA); assay type: biochemical; conditions: 4-nitrophenyl acetate substrate
Description: CA is a zinc metalloenzyme family which catalyzes reversible hydration between carbon dioxide, and bicarbonate and proton.
As a substance for decomposition by CA-II, 4-nitrophenyl acetate was used herein. 4-Nitrophenyl acetate is […] with CA-II to produce 4-nitrophenol. […] To the diluted solution were added […] (final concentration: 5 mmol/L) and the present compound of each concentration, and the mixture was incubated at 37° C. under shading for 30 minutes. […] The IC50 of the compound was obtained through the two-parameter logistic model with the inhibitory rate data in each concentration which was obtained from plural trials.

Rat striatum MAOB = Rat striatum MAOB (Rattus norvegicus (Rat), UniProt P19643); assay: Activity for inhibiting monoamine oxidase B (MAOB); assay type: biochemical
Description: MAOB is an enzyme involved in oxidative de-amino acid reaction of an endogenous monoamine neurotransmitter such as dopamine. […] The effect of the present compounds for inhibiting MAOB in rat striatum and simian striatum was tested.
Mitochondria⋅synaptosome fraction containing MAOB was prepared according to the following procedure. To striata of male Slc: Wistar rat (Japan SLC, Inc.) or male cynomolgus monkey (HAMRI CO., LTD.) was added 0.32 mol/L aqueous sucrose by 10 mL per 1 gram as wet weight of the tissue, and the mixture was homogenized. The homogenate was centrifuged at 4° C. at 1,000 g for 10 minutes, and the obtained supernatant was centrifuged again at 4° C. at 17,200 g for 20 minutes. To the obtained precipitate was added a prepared buffer solution (10 mmol/L Tris-HCl buffer solution (pH 7.4), 0.25 mol/L aqueous sucrose, 0.5 mmol/L EDTA-2K) by 10 mL per 1 gram as wet weight of the original tissue, and the mixture was centrifuged again at 4° C. at 17,200 g for 20 minutes. To the obtained precipitate was added the prepared buffer solution by 40 mL per 1 gram as wet weight of the original tissue. The mixture was suspended to be used as an enzyme homogenate solution.
As a substance to be degraded by MAOB, ^14C-labeled β-phenylethylamine ([^14C] β-PEA) was used. [^14C] β-PEA and the present compound solution diluted to each concentration were incubated with the enzyme homogenate solution at 37° C. for a given period, and then the reaction was stopped by adding 3 mol/L cold HCl thereto. The reaction product was extracted with a mixture of water-saturated toluene and ethyl acetate (1:1). The supernatant organic layer was separated, a liquid scintillation cocktail (ACSII, GE Healthcare) was added to the separated organic layer, and the radioactivity was measured with a liquid scintillation counter (TRI-CARB 3100TR, Packard). The IC50 value of each compound was determined based on two parameter logistic model with the inhibitory data of each concentration, said data were obtained from plural trials.

human Cav3.1 = human Cav3.1 (Homo sapiens (Human), UniProt O43497); assay: T-type calcium channel inhibitory activity, whole-cell patch-clamp with HEK293 cell; assay type: cell-based; conditions: for inhibition at 600 µM: HEK293, 600 μmol/L, read-out: Cav3.1 % inhibitory rate; for IC50: dose-reactive test, read-out: Cav3.1 IC50 (parenthesized)
Description: (§1) The inhibitory activity of the present compounds for T-type calcium channel was measured by whole-cell patch-clamp method with HEK293 cell (vendor of HEK 293 cell: ATCC, Manassas, Va., USA, builder of expressing cell: ChanTest Corporation., Cleveland, Ohio, USA), in which human Cav3.1, human Cav3.2, or human Cav3.3 is expressed. The culture medium used for HEK293 cell was prepared by adding fetal bovine serum (10%), sodium penicillin G (100 U/mL), streptomycin sulfate (100 μg/mL), and G418 (500 μg/mL) to a mixture medium of Dulbecco's modified Eagle's medium/Ham's F-12 medium. The whole-cell current was evaluated with IonWorks Barracuda system and Population Patch Clamp (both are provided by Molecular Device Corporation, Union City, Calif., USA). The extracellular recording solution used during the recording was Hanks' balanced salt solution. The internal recording solution used herein was 50 mmol/L CsCl, 90 mmol/L CsF, 5 mmol/L MgCl2, 1 mmol/L glycol ether diamine tetraacetic acid (EGTA), and 10 mmol/L 4-(2-hydroxyethyl)piperazine-1-ethanesulfonic acid (HEPES (pH 7.2). The holding voltage was held at −90 mV, then changed to −65 mV. 60 seconds later, −20 mV pulse was added thereto for 200 millisecond to activate the channel on plasma membrane and generate calcium current. The calcium current was recorded with an amplifier of IonWorks Barracuda system, and analyzed with a program of the system (Version 2.0.2). The record of the calcium current was obtained twice, before and after the addition of the compound. In the measurement after adding the compound, the cells were exposed to the recording solution containing the compound for more than 5 minutes and then the current was measured. In the analyses, the ratio of current readout after the compound addition per current readout before the compound addition was calculated, the calculated value was subtracted from one, and the obtained value was converted to percentage. […] The value obtained from each compound was canonicalized based on the two ends of values to obtain each inhibitory rate. The positive control compound used herein was TTA-A2 which is known as T-type calcium channel inhibitor. IC50 value was calculated with Hill equation.
(§2) Each inhibitory rate (%) against T-type calcium channel at the evaluation concentration of the present compound (600 μmol/L) is shown in Table 12, in which the parenthesized values are IC50 values (μmol/L)) calculated from the dose-reactive test.

human Cav3.2 = human Cav3.2 (Homo sapiens (Human), UniProt O95180); assay: as above; assay type: cell-based; conditions: for inhibition at 600 µM: HEK293, 600 μmol/L, read-out: Cav3.2 % inhibitory rate; for IC50: dose-reactive test, read-out: Cav3.2 IC50 (parenthesized)
Description: as §1, §2

human Cav3.3 = human Cav3.3 (Homo sapiens (Human), UniProt Q9P0X4); assay: as above; assay type: cell-based; conditions: for inhibition at 600 µM: HEK293, 600 μmol/L, read-out: Cav3.3 % inhibitory rate; for IC50: dose-reactive test, read-out: Cav3.3 IC50 (parenthesized)
Description: as §1, §2

[1] = system: reserpine-induced Parkinson's disease model mouse; assay: Potentiating effect of levodopa-induced hyperactivity in reserpine-induced Parkinson's disease model mouse; assay type: in vivo; conditions: Examples 12.5 or 25 mg/kg oral; rasagiline 3 or 10 mg/kg; with levodopa 200 mg/kg i.p.
Description: Dopamine-depleted mice due to reserpine treatment are model mice of akinesia symptoms in Parkinson's disease, said symptoms are relieved with levodopa (L-DOPA). The effect of the present compounds for potentiating the levodopa's effect was tested.
In the present test, male Crl: CD1 (ICR) mice (CHARLES RIVER LABORATORIES JAPAN, INC.) were used. 20-24 hours before starting the movement measurement, reserpine (3 mg/kg) was intraperitoneally administered to the mouse. One hour before starting the movement measurement, the present compound (12-.5 mg/kg or 25 mg/kg of. Examples 1, 2, 3, 4, and 5) was orally administered to the mouse. Shortly before starting the movement measurement, levodopa (200 mg/kg) with benserazide whose amount was ¼ of levodopa in free form was intraperitoneally administered to the mouse. The movement measurement was carried out for 90 minutes, and each total movement was compared.

[2] = system: unilateral lesion model of nigrostriatal dopamine neuron induced with 6-OHDA; assay: Extending duration of levodopa-induced rotational behavior in 6-OHDA unilateral lesion model; assay type: in vivo, rat; conditions: Examples 10 or 30 mg/kg oral; rasagiline 0.6 mg/kg; with levodopa 5 mg/kg i.p.
[3] = [14C] β-PEA substrate, read-out: Rat striatum MAOB IC50

Chain of human Cav3.3 (Q9P0X4 whole entry): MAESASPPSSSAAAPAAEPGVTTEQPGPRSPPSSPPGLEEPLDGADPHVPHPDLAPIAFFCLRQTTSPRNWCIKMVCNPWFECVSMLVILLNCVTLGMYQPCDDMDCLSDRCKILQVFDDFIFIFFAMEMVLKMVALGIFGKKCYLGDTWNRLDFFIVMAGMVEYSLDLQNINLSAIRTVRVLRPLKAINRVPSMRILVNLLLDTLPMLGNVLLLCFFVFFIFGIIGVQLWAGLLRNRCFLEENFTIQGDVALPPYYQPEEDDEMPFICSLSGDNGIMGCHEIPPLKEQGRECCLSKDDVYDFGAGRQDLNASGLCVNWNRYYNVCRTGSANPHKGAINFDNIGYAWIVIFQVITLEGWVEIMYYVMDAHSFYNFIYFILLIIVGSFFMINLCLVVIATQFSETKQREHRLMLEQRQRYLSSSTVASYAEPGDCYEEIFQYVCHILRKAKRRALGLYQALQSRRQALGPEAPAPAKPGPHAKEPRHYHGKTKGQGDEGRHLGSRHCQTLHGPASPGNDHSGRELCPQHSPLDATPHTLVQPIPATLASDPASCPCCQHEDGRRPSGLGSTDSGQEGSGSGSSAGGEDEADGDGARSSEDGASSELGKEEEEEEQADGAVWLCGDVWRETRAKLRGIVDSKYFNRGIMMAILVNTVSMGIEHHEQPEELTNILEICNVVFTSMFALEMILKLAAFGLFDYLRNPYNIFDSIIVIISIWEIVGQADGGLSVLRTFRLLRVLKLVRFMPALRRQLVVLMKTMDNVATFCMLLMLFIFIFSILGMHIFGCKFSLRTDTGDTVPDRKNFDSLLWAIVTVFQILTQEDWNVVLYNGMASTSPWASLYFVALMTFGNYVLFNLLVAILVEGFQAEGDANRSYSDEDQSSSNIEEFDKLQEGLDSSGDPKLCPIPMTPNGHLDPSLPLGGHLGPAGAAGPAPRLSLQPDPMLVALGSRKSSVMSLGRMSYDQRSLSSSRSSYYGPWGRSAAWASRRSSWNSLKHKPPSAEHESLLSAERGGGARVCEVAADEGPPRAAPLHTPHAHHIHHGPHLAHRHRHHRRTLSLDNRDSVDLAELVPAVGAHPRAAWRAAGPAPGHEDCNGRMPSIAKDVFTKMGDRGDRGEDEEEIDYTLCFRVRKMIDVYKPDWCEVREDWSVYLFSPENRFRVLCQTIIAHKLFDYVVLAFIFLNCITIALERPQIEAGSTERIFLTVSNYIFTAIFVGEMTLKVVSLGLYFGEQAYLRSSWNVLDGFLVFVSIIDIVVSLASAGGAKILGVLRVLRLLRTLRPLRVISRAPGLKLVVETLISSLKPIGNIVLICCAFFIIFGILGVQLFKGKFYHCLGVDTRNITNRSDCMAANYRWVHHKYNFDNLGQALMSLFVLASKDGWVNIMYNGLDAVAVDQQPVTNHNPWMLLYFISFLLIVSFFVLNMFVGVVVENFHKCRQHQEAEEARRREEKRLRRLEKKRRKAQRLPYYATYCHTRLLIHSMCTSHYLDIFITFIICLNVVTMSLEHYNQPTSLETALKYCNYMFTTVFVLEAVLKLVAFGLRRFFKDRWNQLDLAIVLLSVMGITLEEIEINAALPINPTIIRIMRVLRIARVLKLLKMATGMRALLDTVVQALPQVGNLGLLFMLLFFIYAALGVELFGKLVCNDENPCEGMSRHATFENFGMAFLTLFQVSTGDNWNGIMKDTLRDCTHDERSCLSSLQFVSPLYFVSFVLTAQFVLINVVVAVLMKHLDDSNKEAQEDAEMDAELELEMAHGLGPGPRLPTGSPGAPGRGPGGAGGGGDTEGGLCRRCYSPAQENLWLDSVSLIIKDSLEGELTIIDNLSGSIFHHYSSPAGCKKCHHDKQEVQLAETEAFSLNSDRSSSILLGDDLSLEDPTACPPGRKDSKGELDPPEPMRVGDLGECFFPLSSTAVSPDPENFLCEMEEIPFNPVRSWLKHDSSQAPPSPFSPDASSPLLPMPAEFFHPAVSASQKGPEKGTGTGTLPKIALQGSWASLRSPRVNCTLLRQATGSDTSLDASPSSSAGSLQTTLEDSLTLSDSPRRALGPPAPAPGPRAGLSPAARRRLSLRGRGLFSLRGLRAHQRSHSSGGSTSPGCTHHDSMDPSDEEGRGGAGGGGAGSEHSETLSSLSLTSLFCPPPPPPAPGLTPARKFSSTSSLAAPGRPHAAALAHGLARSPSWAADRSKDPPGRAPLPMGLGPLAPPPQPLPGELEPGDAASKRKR
Chain of Rat striatum MAOB (P19643 whole entry): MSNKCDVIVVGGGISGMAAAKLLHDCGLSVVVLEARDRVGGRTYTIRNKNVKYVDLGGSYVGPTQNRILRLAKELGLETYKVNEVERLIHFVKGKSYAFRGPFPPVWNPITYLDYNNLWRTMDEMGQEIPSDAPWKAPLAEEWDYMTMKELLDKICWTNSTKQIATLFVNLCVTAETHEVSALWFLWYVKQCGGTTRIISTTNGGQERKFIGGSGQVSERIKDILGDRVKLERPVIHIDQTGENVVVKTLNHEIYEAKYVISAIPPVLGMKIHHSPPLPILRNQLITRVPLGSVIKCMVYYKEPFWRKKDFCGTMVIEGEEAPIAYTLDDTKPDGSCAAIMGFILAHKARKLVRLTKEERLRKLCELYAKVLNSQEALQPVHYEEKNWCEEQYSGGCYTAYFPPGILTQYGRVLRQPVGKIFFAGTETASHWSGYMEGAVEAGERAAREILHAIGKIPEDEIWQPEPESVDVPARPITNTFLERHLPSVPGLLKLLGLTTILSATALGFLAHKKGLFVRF
Chain of human Cav3.1 (O43497 whole entry): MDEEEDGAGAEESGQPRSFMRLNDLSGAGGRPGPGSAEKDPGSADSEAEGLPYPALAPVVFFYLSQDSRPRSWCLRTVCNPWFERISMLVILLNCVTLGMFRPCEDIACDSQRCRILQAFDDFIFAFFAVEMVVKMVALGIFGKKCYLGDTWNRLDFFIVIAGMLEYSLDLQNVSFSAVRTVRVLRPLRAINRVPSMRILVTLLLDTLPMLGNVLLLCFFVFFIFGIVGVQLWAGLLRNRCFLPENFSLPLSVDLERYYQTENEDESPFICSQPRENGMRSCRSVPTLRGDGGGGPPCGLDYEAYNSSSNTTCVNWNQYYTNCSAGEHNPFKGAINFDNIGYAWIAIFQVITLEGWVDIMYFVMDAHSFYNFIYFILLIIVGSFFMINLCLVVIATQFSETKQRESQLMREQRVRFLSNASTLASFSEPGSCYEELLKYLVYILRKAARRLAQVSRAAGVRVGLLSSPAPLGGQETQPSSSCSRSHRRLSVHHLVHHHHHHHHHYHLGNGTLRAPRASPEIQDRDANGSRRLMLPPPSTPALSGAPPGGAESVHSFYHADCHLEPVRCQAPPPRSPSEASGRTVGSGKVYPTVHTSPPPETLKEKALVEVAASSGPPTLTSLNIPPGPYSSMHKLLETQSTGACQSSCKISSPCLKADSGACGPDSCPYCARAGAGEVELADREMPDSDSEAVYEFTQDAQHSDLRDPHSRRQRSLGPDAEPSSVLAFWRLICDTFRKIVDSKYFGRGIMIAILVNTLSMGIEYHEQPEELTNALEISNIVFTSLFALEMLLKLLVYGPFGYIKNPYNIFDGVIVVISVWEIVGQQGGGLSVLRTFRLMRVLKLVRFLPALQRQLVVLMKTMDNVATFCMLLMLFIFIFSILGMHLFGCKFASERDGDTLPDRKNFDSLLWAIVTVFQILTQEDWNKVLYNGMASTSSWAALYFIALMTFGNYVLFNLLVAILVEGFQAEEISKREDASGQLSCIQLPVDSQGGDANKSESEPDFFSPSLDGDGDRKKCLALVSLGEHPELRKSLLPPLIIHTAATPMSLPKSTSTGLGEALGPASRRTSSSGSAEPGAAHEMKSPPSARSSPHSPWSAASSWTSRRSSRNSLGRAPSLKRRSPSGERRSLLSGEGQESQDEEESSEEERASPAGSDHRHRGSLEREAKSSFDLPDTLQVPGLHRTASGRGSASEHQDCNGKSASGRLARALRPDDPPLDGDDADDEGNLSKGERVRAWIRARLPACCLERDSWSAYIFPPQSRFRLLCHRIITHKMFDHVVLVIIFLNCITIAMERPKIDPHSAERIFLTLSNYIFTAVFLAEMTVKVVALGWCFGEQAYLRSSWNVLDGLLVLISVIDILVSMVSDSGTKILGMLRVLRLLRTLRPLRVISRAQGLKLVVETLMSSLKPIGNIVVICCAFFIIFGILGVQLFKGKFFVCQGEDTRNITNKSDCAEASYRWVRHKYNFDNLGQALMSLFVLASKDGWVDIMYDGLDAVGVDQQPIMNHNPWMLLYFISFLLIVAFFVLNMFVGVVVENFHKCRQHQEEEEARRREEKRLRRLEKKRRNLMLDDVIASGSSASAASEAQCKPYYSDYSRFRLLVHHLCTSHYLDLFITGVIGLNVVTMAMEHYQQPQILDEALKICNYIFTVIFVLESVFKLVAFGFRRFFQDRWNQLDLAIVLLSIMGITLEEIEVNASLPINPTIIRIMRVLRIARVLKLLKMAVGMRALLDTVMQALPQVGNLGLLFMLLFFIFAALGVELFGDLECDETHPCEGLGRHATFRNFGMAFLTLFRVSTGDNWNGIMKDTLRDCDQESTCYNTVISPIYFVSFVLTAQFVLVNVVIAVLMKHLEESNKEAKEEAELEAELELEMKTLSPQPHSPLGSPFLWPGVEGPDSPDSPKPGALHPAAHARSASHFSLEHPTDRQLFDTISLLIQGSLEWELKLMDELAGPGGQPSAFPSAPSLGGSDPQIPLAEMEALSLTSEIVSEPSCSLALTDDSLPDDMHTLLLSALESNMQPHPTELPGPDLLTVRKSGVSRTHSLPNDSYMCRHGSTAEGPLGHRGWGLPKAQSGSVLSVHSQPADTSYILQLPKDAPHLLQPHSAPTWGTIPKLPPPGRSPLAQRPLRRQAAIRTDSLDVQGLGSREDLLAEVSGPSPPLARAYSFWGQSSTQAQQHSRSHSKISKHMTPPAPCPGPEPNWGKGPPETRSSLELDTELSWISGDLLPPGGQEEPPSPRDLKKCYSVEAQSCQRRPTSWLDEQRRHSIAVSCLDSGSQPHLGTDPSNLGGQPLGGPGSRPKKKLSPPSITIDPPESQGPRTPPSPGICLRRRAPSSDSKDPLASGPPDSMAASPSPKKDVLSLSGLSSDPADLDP

| SMILES | IC50 (human CA-II) [µM] | IC50 (Rat striatum MAOB; [3]) [µM] | inhibition at 600 µM (human Cav3.1) [%] | inhibition at 600 µM (human Cav3.2) [%] | inhibition at 600 µM (human Cav3.3) [%] | IC50 (human Cav3.1) [µM] | IC50 (human Cav3.2) [µM] | IC50 (human Cav3.3) [µM] | levodopa-induced hyperactivity (total movement, 90 minutes) [1] | rotational number in the late phase (100-120 minutes) [2] | IC50 (Rat striatum MAOB; Rat striatum MAOB IC50, [14C] β-PEA substrate) [µM] | MAOB inhibitory action (Rat striatum MAOB; rat striatum, in words) |
| --- | --- | --- | --- | --- | --- | --- | --- | --- | --- | --- | --- | --- |
| CCC(c1noc2ccccc12)S(N)(=O)=O (stereo not shown) [Example 6, 1-(1,2-benzoxazol-3-yl)propane-1-sulfonamide] | 45.7 | > 600 | 80.4 | 67.4 | 72.9 | – | – | – | – | – | – | – |
| CCCC(c1noc2ccccc12)S(N)(=O)=O (stereo not shown) [Example 7, 1-(1,2-benzoxazol-3-yl)butane-1-sulfonamide] | 32.9 | > 600 | – | – | – | – | – | – | – | – | – | – |
| CC(F)(c1noc2ccccc12)S(N)(=O)=O (stereo not shown) [Example 8, 1-(1,2-benzoxazol-3-yl)-1-fluoroethane-1-sulfonamide] | 2.2 | > 600 | 83.1 | 70.3 | 73 | 216 | 318 | 321 | – | did not show statistically-significant increase, but showed a tendency to increase the rotational number in the late phase | – | – |
| CC(C)C(c1noc2ccccc12)S(N)(=O)=O (stereo not shown) [Example 9, 1-(1,2-benzoxazol-3-yl)-2-methylpropane-1-sulfonamide] | – | – | 96.5 | 96.9 | 94.3 | – | – | – | – | – | – | – |
| COc1ccc2onc(C(C)S(N)(=O)=O)c2c1 (stereo not shown) [Example 10, 1-(5-methoxy-1,2-benzoxazol-3-yl)ethane-1-sulfonamide] | – | > 600 | 68.5 | 57.7 | 69.7 | – | – | – | – | – | – | – |
| CC(c1noc2ccc(F)cc12)S(N)(=O)=O (stereo not shown) [Example 11, 1-(5-fluoro-1,2-benzoxazol-3-yl)ethane-1-sulfonamide] | – | > 600 | 56 | 50.8 | 54.3 | – | – | – | – | – | – | – |
| C[C@H](NCc1ccc(OCc2cccc(F)c2)cc1)C(N)=O [safinamide, reference compound] | – | – | – | – | – | – | – | – | – | did not show statistically-significant increase, but showed a tendency to increase the rotational number in the late phase | 0.193 | strong MAOB inhibitory action |

Continued, in another order:

| IC50 (human CA-II) [µM] | IC50 (Rat striatum MAOB; [3]) [µM] | inhibition at 600 µM (human Cav3.1) [%] | inhibition at 600 µM (human Cav3.2) [%] | inhibition at 600 µM (human Cav3.3) [%] | IC50 (human Cav3.1) [µM] | IC50 (human Cav3.2) [µM] | IC50 (human Cav3.3) [µM] | SMILES | levodopa-induced hyperactivity (total movement, 90 minutes) [1] | rotational number in the late phase (100-120 minutes) [2] | IC50 (Rat striatum MAOB; Rat striatum MAOB IC50, [14C] β-PEA substrate) [µM] | MAOB inhibitory action (Rat striatum MAOB; rat striatum, in words) |
| --- | --- | --- | --- | --- | --- | --- | --- | --- | --- | --- | --- | --- |
| 79.2 | > 600 | 72.7 | 64 | 70 | – | – | – | CC(C)(c1noc2ccccc12)S(N)(=O)=O [Example 2, 2-(1,2-benzoxazol-3-yl)propane-2-sulfonamide] | significantly-potentiating effect of levodopa-induced hyperactivity | significantly increased the rotational number in the late phase | – | – |
| 0.084 | 101 | 69.9 | 64 | 61 | 325 | 362 | 440 | NS(=O)(=O)C(F)c1noc2ccccc12 (stereo not shown) [Example 3, 1-(1,2-benzoxazol-3-yl)-1-fluoromethane-sulfonamide] | significantly-potentiating effect of levodopa-induced hyperactivity | did not show statistically-significant increase, but showed a tendency to increase the rotational number in the late phase | – | – |
| 0.023 | 389 | – | – | – | – | – | – | NS(=O)(=O)C(F)(F)c1noc2ccccc12 [Example 4, 1-(1,2-benzoxazol-3-yl)-1,1-difluoromethane-sulfonamide] | significantly-potentiating effect of levodopa-induced hyperactivity | – | – | – |
| 5.2 | > 600 | 64.5 | 54 | 55.6 | – | – | – | NS(=O)(=O)C1(c2noc3ccccc23)CC1 [Example 5, 1-(1,2-benzoxazol-3-yl)cyclopropane-1-sulfonamide] | significantly-potentiating effect of levodopa-induced hyperactivity | did not show statistically-significant increase, but showed a tendency to increase the rotational number in the late phase | – | – |
| – | 150 | 95 | 91.5 | 93 | – | – | – | CC(c1noc2ccc(Cl)cc12)S(N)(=O)=O (stereo not shown) [Example 12, 1-(5-chloro-1,2-benzoxazol-3-yl)ethane-1-sulfonamide] | – | – | – | – |

Reference: patent US11535599B2, “Benzisoxazole derivative” (Sumitomo Pharma Co., Ltd., priority 2020, dated 2022)
